Measurements as given in US5571793A, “Endoparasiticidal compositions based on open-chain tetradepsipeptides” (Bayer Aktiengesellschaft, priority 1993, dated 1996).

test system: Haemonchus contortus; test: In vivo nematode test Haemonchus contortus/sheep; conditions: sheep infected experimentally with Haemonchus contortus; pure active compound orally and/or intravenously; dose at which nematode egg excretion with the faeces stops completely
Protocol: Sheep which had been infected experimentally with Haemonchus contortus were treated after the prepatency period of the parasites had elapsed. The active compounds were administered orally and/or intravenously in the form of the pure active compound.
The degree of effectiveness is determined by quantitatively determining the nematode eggs excreted with the faeces before and after the treatment.
If egg excretion stops completely after the treatment, this means that the nematodes have been aborted or damaged in such a manner that they no longer produce eggs (dosis effectiva).
Active compounds which have been tested and effective dosage rates (dosis effectiva) can be seen from the Table which follows: […]

Row | SMILES | Dosis effectiva [mg/kg]
1 | CCN[C@@H](CC(C)C)C(=O)O[C@H](C)C(=O)N(CC)[C@@H](CC(C)C)C(=O)O[C@H](Cc1ccccc1)C(=O)OC(C)(C)C [Example 1, tert.-Butyl-N-ethyl-L-leucyl-D-lactyl-N-ethyl-L-leucyl-D-3-phenyllactate] | 10
2 | CCCN(Cc1ccccc1)[C@@H](CC(C)C)C(=O)O[C@H](C)C(=O)N(CCC)[C@@H](CC(C)C)C(=O)O[C@H](Cc1ccccc1)C(=O)O [Example 2, N-Benzyl-N-propyl-L-leucyl-D-lactyl-N-propyl-L-leucyl-D-phenyllactic acid] | 10
3 | CN[C@@H](Cc1ccccc1)C(=O)O[C@H](C)C(=O)N(C)[C@H](Cc1ccccc1)C(=O)O[C@H](C)C(=O)OC(C)(C)C [Example 3, tert.-Butyl-N-methyl-L-phenylalanyl-D-lactyl-N-methyl-D-phenylalanyl-D-lactate] | 10
